In US9469650B2, “Melampomagnolide B derivatives” (BOARD OF TRUSTEES OF THE UNIVERSITY OF ARKANSAS, priority 2013, dated 2016):

What was measured:
M14 = test: panel of 60 human tumor cell lines, growth inhibition (Melanoma); settings: M14
HOP-62 = test: panel of 60 human tumor cell lines, growth inhibition (Non-Small Cell Lung Cancer); settings: HOP-62
SK-OV-3 = test: panel of 60 human tumor cell lines, growth inhibition (Ovarian Cancer); settings: SK-OV-3
SR = test: panel of 60 human tumor cell lines, growth inhibition (Leukemia)
MDA-MB-435 = test: panel of 60 human tumor cell lines, growth inhibition (Melanoma); settings: MDA-MB-435
SK-MEL-5 = test: as above; settings: 8K-MEL-5
LOX IMVI = test: as above
MDA-MB-231/ATCC = test: panel of 60 human tumor cell lines, growth inhibition (Breast Cancer); settings: MDA-MB-231/ATCC
SN12C = test: panel of 60 human tumor cell lines, growth inhibition (Renal Cancer)
NCI-H226 = test: panel of 60 human tumor cell lines, growth inhibition (Non-Small Cell Lung Cancer); settings: NCI-H226

## C=C1C(=O)O[C@H]2[C@H]1CC/C(COC(=O)NCCN1CCCCC1)=C\CC[C@@]1(C)O[C@@H]21 [JVM 2-13]
M14; Log10 Concentration −4.0
  Percent Growth: −82%
M14; Log10 Concentration −5.0
  Percent Growth: 42%
M14; Log10 Concentration −6.0
  Percent Growth: 91%
M14; Log10 Concentration −7.0
  Percent Growth: 96%
M14; Log10 Concentration −8.0
  Percent Growth: 91%
HOP-62
  GI50: 17 µM
HOP-62; Log10 Concentration −4.0
  Percent Growth: −77%
HOP-62; Log10 Concentration −5.0
  Percent Growth: 88%
HOP-62; Log10 Concentration −6.0
  Percent Growth: 91%
HOP-62; Log10 Concentration −7.0
  Percent Growth: 95%
HOP-62; Log10 Concentration −8.0
  Percent Growth: 86%
SK-OV-3
  GI50: 21 µM
  TGI: 45.8 µM
SK-OV-3; Log10 Concentration −4.0
  Percent Growth: −50%
SK-OV-3; Log10 Concentration −5.0
  Percent Growth: 97%
SK-OV-3; Log10 Concentration −6.0
  Percent Growth: 97%
SK-OV-3; Log10 Concentration −7.0
  Percent Growth: 103%
SK-OV-3; Log10 Concentration −8.0
  Percent Growth: 92%
SR
  TGI: 15.4 µM
SR; Log10 Concentration −4.0
  Percent Growth: −47%
SR; Log10 Concentration −5.0
  Percent Growth: 11%
SR; Log10 Concentration −6.0
  Percent Growth: 75%
SR; Log10 Concentration −7.0
  Percent Growth: 95%
SR; Log10 Concentration −8.0
  Percent Growth: 118%
MDA-MB-435
  GI50: 4.13 µM
  TGI: 16.7 µM
MDA-MB-435; Log10 Concentration −4.0
  Percent Growth: −93%
MDA-MB-435; Log10 Concentration −5.0
  Percent Growth: 27%
MDA-MB-435; Log10 Concentration −6.0
  Percent Growth: 87%
MDA-MB-435; Log10 Concentration −7.0
  Percent Growth: 97%
MDA-MB-435; Log10 Concentration −8.0
  Percent Growth: 95%
SK-MEL-5
  GI50: 15.8 µM
  TGI: 30.4 µM
SK-MEL-5; Log10 Concentration −4.0
  Percent Growth: −91%
SK-MEL-5; Log10 Concentration −5.0
  Percent Growth: 85%
SK-MEL-5; Log10 Concentration −6.0
  Percent Growth: 99%
SK-MEL-5; Log10 Concentration −7.0
  Percent Growth: 101%
SK-MEL-5; Log10 Concentration −8.0
  Percent Growth: 100%
LOX IMVI
  GI50: 10.2 µM
  TGI: 23.9 µM
LOX IMVI; Log10 Concentration −4.0
  Percent Growth: −84%
LOX IMVI; Log10 Concentration −5.0
  Percent Growth: 51%
LOX IMVI; Log10 Concentration −6.0
  Percent Growth: 94%
LOX IMVI; Log10 Concentration −7.0
  Percent Growth: 99%
LOX IMVI; Log10 Concentration −8.0
  Percent Growth: 102%
MDA-MB-231/ATCC
  GI50: 5.69 µM
  TGI: 20.8 µM
MDA-MB-231/ATCC; Log10 Concentration −4.0
  Percent Growth: −79%
MDA-MB-231/ATCC; Log10 Concentration −5.0
  Percent Growth: 37%
MDA-MB-231/ATCC; Log10 Concentration −6.0
  Percent Growth: 91%
MDA-MB-231/ATCC; Log10 Concentration −7.0
  Percent Growth: 99%
MDA-MB-231/ATCC; Log10 Concentration −8.0
  Percent Growth: 107%
SN12C
  GI50: 3.75 µM
  TGI: 16.2 µM
SN12C; Log10 Concentration −4.0
  Percent Growth: −71%
SN12C; Log10 Concentration −5.0
  Percent Growth: 19%
SN12C; Log10 Concentration −6.0
  Percent Growth: 92%
SN12C; Log10 Concentration −7.0
  Percent Growth: 94%
SN12C; Log10 Concentration −8.0
  Percent Growth: 97%
NCI-H226
  GI50: 10.5 µM
  TGI: 40.2 µM
NCI-H226; Log10 Concentration −4.0
  Percent Growth: −3%
NCI-H226; Log10 Concentration −5.0
  Percent Growth: 52%
NCI-H226; Log10 Concentration −6.0
  Percent Growth: 93%
NCI-H226; Log10 Concentration −7.0
  Percent Growth: 96%
NCI-H226; Log10 Concentration −8.0
  Percent Growth: 99%
